In experiment [1] the test system is C42B (human prostate cancer line). As to the kind of experiment: CCK-8 antiproliferative assay, C42B. It counts as cell-based. Conditions: 48 h, read-out: IC50, Mean ± SE, C42B. A general note: Tetrazolium dyes change colour on reduction, which living cells bring about.
In experiment [2] the test system is A549/CDDP (A549 cell line resistant to cisplatin). Description: CCK-8 cytotoxicity, A549/CDDP. It counts as cell-based. The following applies: Homo sapiens, 48 h, CCK-8, cisplatin-resistant, read-out: IC50, Mean ± SE, A549/CDDP. The method, then:
Besides the high cytotoxicity, drug resistance is the other limiting factor of chemotherapeutics. In this study, the cytotoxicities of compound 14b towards five kinds of drug-resistant cancer cell lines were also evaluated. Except three kinds of cell lines that are resistant to three drugs commonly used in clinical practice, two kinds of cell lines that are resistant to MTAs were also evaluated.
A549 (non-small-cell-lung cancer cell line), Caski (human epithelial cervical cancer cell line), HepG2 (human liver carcinoma cell line), MCF-7 (human breast carcinoma cell line), C42B (human prostate cancer line C42B), L-02 (human normal hepatocytes), RWPE-1 (human prostate epithelial cells) and MCF-10A (human normal mammary epithelial cells) were obtained from National Collection of Authenticated Cell Cultures (Shanghai, China). […]
After 24 h, the medium containing different concentrations of tested compounds were added for another 48 h. […] The optical density was recorded with a microplate reader at 570 nm (Thermo Scientific, Varioskan LUX). All the experiments were repeated independently at least three times and the IC50 values were calculated […]

The next experiment concerns A549 cells. Description: MMP detection by JC-1. It counts as cell-based, human. Conditions: A549, 10, 20 and 50 nM, 12 h. The text has this: The intrinsic mitochondrial pathway is one of the most well-studied mechanisms relevant to cell apoptosis. ROS accumulation and mitochondrial membrane potential (MMP) alteration play crucial roles in this pathway. In this study, a fluorescent dye including DCFH-DA and JC-1 was used to monitor the intracellular ROS and MMP, respectively.
Figure 5 ROS accumulation and MMP alteration induced by compound 14b. (A,B) The intracellular ROS detection by DCFH-DA after A549 cells treated with compound 14b at indicated concentrations for 12 h. (C,D) The detection of MMP monitored by JC-1 dye after A549 cells treated with compound 14b at the concentrations of 10, 20 and 50 nM for 12 h. […]
samples were fixed in ice-cold 70% ethanol overnight and removed with ice-cold PBS for three times. […] After the incubation, the prepared cell samples were immediately analyzed. Almost 10,000 events were detected by flow cytometry (Beckman Coulter, CytoFlex LX). The data regarding the number of cells in different phases of the cell cycle were or apoptotic cells were analyzed by […]
Caspase-3 activity was measured according to the manufacturer ’s instructions using a GreenNuc™ Caspase-3 assay kit for live cells (Beyotime, China). […] After incubation, the fluorescence intensity (excitation wavelength:
485 nm, emission wavelength: 515 nm) was recorded using a multifunctional microplate reader (Thermo Scientific, Varioskan LUX). […]

Regarding `COc1ccc(C(=O)c2ccc3c(ccn3C)c2)c2c1C=CC(C)(C)O2` [compound 14b, (5-methoxy-2,2-dimethyl-2H-chromen-8-yl)(1-methyl-1H-indol-5-yl)methanone], the values for the IC50 in experiment [1] and in experiment [2] were 0.051 ± 0.005 µM and 0.035 ± 0.021 µM, respectively. In addition, the “MMP, ratio of JC-1 aggregates to monomers” value in the experiment with A549 cells is on record as “remarkably decreased”.

The record behind these values is PMC9921564, “Novel Indole-Containing Hybrids Derived from Millepachine: Synthesis, Biological Evaluation and Antitumor Mechanism Study” (Molecules, 2023).
